# Where two headings read alike, the source gives them in different places.
# Key:
# Type in all cases: cell-based
# [1] = system: Staphylococcus aureus ATCC 29213; assay: Broth micro dilution assay for MIC and MBC; details: S. aureus ATCC 29213
# Experimental: All bacteria were grown on blood agar plates (Colombia agar-CM331, Oxoid Limited, Basingstoke, Hampshire, United Kingdom) supplemented with 5% v/v sheep blood) at 37° C. The Streptococcus species were incubated at 37° C. in the presence of 5% carbon dioxide (CO2).
# Duplicate two-fold serial dilutions of test sample (100 μL/well) were prepared in sterile round-bottom 96-well plates (Sarstedt Australia Pty Ltd, Technology Park, SA, Australia), in the appropriate broth containing 2% DMSO. Bacterial cell suspension (100 μL) corresponding to 1×10^6 CFU/mL was added in all wells with the exception of wells containing saline, test sample and media sterility controls, respectively. Controls for bacterial growth without test sample were also included on each plate. Plates were then placed on a shaker for 10 min and incubated at 37° C. overnight. […] Vancomycin and gentamicin (Sigma, St Louis, Mo., United States of America) were used as positive controls for the Gram-positive and Gram-negative bacteria, respectively. Following the determination of the MIC, the MBC was determined by transferring a 10 μL aliquot from each of the wells at the concentration corresponding to the MIC and those concentrations above into 190 μL of appropriate broth in a sterile 96-well plate. […] The presence or absence of bacterial growth was determined by visual inspection. The MBC was considered to be the lowest concentration of the compound at which no growth occurred.
# [2] = system: Escherichia coli ATCC 25922; assay: Broth micro dilution assay for MIC and MBC; details: ATCC25922, E. coli ATCC 25922, maximum concentration tested 250 μg/mL
# Experimental: (§1) Staphylococcus aureus ATCC 29213 obtained from stock cultures stored at −70° C. at the Sansom Institute (University of South Australia, Adelaide, SA, Australia) was used as the test microorganism in a bioassay guided fractionation process. […] All bacteria were grown on blood agar plates (Colombia agar-CM331, Oxoid Limited, Basingstoke, Hampshire, United Kingdom) supplemented with 5% v/v sheep blood) at 37° C. The Streptococcus species were incubated at 37° C. in the presence of 5% carbon dioxide (CO2). Brain Heart Infusion broth (CM 225, Oxoid Limited) was used for the experiments to determine the minimum inhibitory concentration (MIC) and minimum bactericidal concentration (MBC) for the Streptococcus species while cation adjusted MH II broth (Becton Dickinson France SAS, Le Point de Claix, France) was used for the Staphylococcus species and the Gram-negative bacteria tested.
# (§2) Broth micro dilution was used to determine the MIC of extract, fractions and pure compounds against S. aureus ATCC 29213. Duplicate two-fold serial dilutions of test sample (100 μL/well) were prepared in sterile round-bottom 96-well plates (Sarstedt Australia Pty Ltd, Technology Park, SA, Australia), in the appropriate broth containing 2% DMSO. Bacterial cell suspension (100 μL) corresponding to 1×10^6 CFU/mL was added in all wells with the exception of wells containing saline, test sample and media sterility controls, respectively. Controls for bacterial growth without test sample were also included on each plate. Plates were then placed on a shaker for 10 min and incubated at 37° C. overnight. […] Vancomycin and gentamicin (Sigma, St Louis, Mo., United States of America) were used as positive controls for the Gram-positive and Gram-negative bacteria, respectively. Following the determination of the MIC, the MBC was determined by transferring a 10 μL aliquot from each of the wells at the concentration corresponding to the MIC and those concentrations above into 190 μL of appropriate broth in a sterile 96-well plate. The plates were incubated under the same conditions as in the MIC experiment with the Streptococcus species incubated in the presence of 5% CO2. The presence or absence of bacterial growth was determined by visual inspection. The MBC was considered to be the lowest concentration of the compound at which no growth occurred.
# [3] = system: Pseudomonas aeruginosa ATCC 27853; assay: Broth micro dilution assay for MIC and MBC; details: ATCC27853, P. aeruginosa ATCC 27853, maximum concentration tested 250 μg/mL
# Experimental: as §1, §2
# [4] = system: Salmonella typhimurium ATCC 13311; assay: Broth micro dilution assay for MIC and MBC; details: Salmonella enterica; S. typhimurium ATCC 13311; maximum concentration tested 250 μg/mL
# Experimental: as §1, §2
# [5] = system: Staphylococcus aureus ATCC 25923; assay: Broth micro dilution assay for MIC and MBC; details: ATCC25923, S. aureus ATCC 25923
# Experimental: as §1, §2
# [6] = system: Streptococcus pneumoniae ATCC 49619; assay: Broth micro dilution assay for MIC and MBC; details: ATCC49619, S. pneumoniae ATCC 49619
# Experimental: as §1, §2
# [7] = system: Streptococcus pyogenes ATCC 10389; assay: Broth micro dilution assay for MIC and MBC; details: ATCC10389, S. pyogenes ATCC 10389
# Experimental: as §1, §2
# [8] = system: Gram-positive bacteria including S. aureus, S. pyogenes and S. pneumoniae; assay: Broth micro dilution assay, Gram-positive bacteria; details: for antimicrobial activity against other Gram-positive bacteria: S. aureus (ATCC 25925), S. pyogenes, S. pneumoniae, values not shown
# Experimental: as §1, §2
# [9] = system: Gram-negative bacteria tested; assay: Broth micro dilution assay, Gram-negative bacteria; details: all Gram-negative bacteria tested, maximum concentrations tested
# Experimental: as §1
# Broth micro dilution was used to determine the MIC of extract, fractions and pure compounds against S. aureus ATCC 29213. […] Following the determination of the MIC, the MBC was determined by transferring a 10 μL aliquot from each of the wells at the concentration corresponding to the MIC and those concentrations above into 190 μL of appropriate broth in a sterile 96-well plate. […] The presence or absence of bacterial growth was determined by visual inspection. […]
# [10] = range over Gram-positive bacteria of Table 2
compound,measurement,setting,value
"CC(=O)OCC(CCC=C(C)C)C1CCC(C)c2ccc(C(=O)O)c(O)c21 (stereo not shown) [Compound 3, 20-acetoxy-8-hydroxyserrulat-14-en-19-oic acid]",MIC,[1],125 µg/mL
"CC(C)=CCCC1COC2=C(C)C(=O)C(=O)c3cccc1c32 (stereo not shown) [Compound 2, 9-methyl-3-(4-methyl-3-pentenyl)-2,3-dihydronaphtho[1,8-bc]pyran-7,8-dione]",MBC,"[1]; Staphylococcus aureus, ATCC29213",125 µg/mL
same,MIC,"[1]; Staphylococcus aureus, ATCC29213, read-out: MIC",15.6 µg/mL
same,MBC,[2],> 250 µg/mL
same,MIC,[2],> 250 µg/mL
same,MBC,[3],> 250 µg/mL
same,MIC,[3],> 250 µg/mL
same,MBC,[4],> 250 µg/mL
same,MIC,[4],> 250 µg/mL
same,MBC,[5],15.6 µg/mL
same,MIC,[5],7.8 µg/mL
same,MBC,[6],7.8 µg/mL
same,MIC,[6],7.8 µg/mL
same,MBC,[7],15.6 µg/mL
same,MIC,[7],7.8 µg/mL
same,MBC,[8]; [10],7.8 to 125 µg/mL
same,MIC,[8]; [10],7.8 to 15.6 µg/mL
same,activity against Gram-negative bacteria,[9],Activity was not observed
"8,20-diacetoxyserrulat-14-en-19-oic acid [Compound 5]",MIC,[1],250 µg/mL
"CC(C)=CCCC(C)C1CCC(C)c2cc(C(=O)O)c(O)cc21 (stereo not shown) [Compound 8, 8-hydroxyserrulat-14-en-19-oic acid]",antimicrobial activity against other Gram-positive bacteria,[8],showed antimicrobial activity
"8,20-dihydroxyserrulat-14-en-19-oic acid [Compound 4]",MIC,[1],250 µg/mL
"CC(C)=CCCC(C)C1CCC(C)c2cc(CO)c(O)cc21 (stereo not shown) [Compound 7, 8,19-dihydroxyserrulat-14-ene]",antimicrobial activity against other Gram-positive bacteria,[8],showed antimicrobial activity
